Test results published in ChEMBL document CHEMBL1949648, “Synthesis and neurite growth evaluation of new analogues of honokiol, a neolignan with potent neurotrophic activity” (2012).

Columns and labels:
[1] = test system: N2a; assay: Induction of neurite outgrowth in mouse Neuro2a cells at 1 uM after 48 hrs by morphometric analysis relative to control; format: functional
[2] = test system: N2a; assay: Induction of neurite outgrowth in mouse Neuro2a cells at 0.1 uM after 48 hrs by morphometric analysis relative to control; format: functional

Row | Structure (SMILES) | Activity [1] [%] | Activity [2] [%]
1 | C=CCc1ccc(O)c(-c2ccc(O)c(-c3ccc(C(=O)OCC)c(C)n3)c2)c1 | 5.78 | –
2 | C=CCc1ccc(OC)c(-c2ccc(OC)c(C(=O)c3cn(Cc4ccccc4)nn3)c2)c1 | 6.87 | –
3 | C=CCc1ccc(OC)c(-c2ccc(O)c(-c3ccn(C)n3)c2)c1 | – | 5.89
4 | C=CCc1ccc(O)c(-c2ccc(O)c(CC=C)c2)c1 [HONOKIOL] | 41.03 | –
